From ChEMBL document CHEMBL5346877, “A-ring-fused pyrazoles of dihydrotestosterone targeting prostate cancer cells via the downregulation of the androgen receptor” (Eur J Med Chem, 2023)
Activity calls are given as the source filed them. The rule behind the calls is not given here.

Legend:
LAPC4 [1] = test: Cytotoxicity against human LAPC4 cells assessed as cell viability at 20 uM incubated for 72 hrs by resazurin dye based microplate reader assay; type: functional; conditions: read-out: Activity
LAPC4 [2] = test: Inhibition of colony formation in human LAPC4 cells at 5 uM incubated for 10 days by crystal violet staining based assay; type: functional, cell-based; conditions: time 10.0 day
[3] = Downregulation of AR protein expression in human LAPC4 cells assessed as AR levels at 10 uM incubated for 24 hrs by immunoblotting analysis; type: functional
[4] = biological target: T1, Androgen receptor (Homo sapiens) (UniProt P10275); test: Antagonist activity at AR in human LAPC4 cells assessed as reduction in Nkx3.1 expression at 10 uM incubated for 24 hrs in presence of R1881 by Western blotting analysis; type: cell-based; conditions: filed as antagonist
T1 sequence (whole entry): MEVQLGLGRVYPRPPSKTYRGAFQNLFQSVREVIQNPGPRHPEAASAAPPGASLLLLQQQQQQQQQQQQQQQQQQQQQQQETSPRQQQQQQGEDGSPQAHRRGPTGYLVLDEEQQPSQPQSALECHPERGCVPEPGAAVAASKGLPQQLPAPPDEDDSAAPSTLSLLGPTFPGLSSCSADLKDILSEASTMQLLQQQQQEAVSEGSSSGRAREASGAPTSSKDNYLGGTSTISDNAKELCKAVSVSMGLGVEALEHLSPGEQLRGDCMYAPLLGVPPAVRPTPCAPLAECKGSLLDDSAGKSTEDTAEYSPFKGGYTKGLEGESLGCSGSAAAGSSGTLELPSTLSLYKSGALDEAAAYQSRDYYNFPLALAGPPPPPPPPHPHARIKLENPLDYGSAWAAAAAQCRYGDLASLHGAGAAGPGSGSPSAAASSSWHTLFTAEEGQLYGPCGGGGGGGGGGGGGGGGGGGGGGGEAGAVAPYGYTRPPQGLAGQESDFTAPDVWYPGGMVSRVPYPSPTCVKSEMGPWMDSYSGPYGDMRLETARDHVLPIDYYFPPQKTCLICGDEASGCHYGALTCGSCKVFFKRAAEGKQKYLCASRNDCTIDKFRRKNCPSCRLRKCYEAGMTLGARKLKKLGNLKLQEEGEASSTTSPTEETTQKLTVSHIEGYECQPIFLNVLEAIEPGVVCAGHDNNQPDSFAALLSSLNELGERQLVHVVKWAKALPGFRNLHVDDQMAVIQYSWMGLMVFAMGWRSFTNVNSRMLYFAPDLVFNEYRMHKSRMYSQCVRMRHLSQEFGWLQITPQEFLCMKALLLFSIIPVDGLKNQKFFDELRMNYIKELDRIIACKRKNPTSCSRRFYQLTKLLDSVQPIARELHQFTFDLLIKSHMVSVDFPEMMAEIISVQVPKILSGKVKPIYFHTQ

[5] = biological target: T1, Androgen receptor (Homo sapiens); test: Antagonist activity at AR in human LAPC4 cells assessed as reduction in PSA expression at 10 uM incubated for 24 hrs in presence of R1881 by Western blotting analysis; type: cell-based; conditions: filed as antagonist
LAPC4 [6] = test: Inhibition of colony formation in human LAPC4 cells at 10 uM incubated for 10 days by crystal violet staining based assay; type: functional; conditions: LAPC4, 240 h, time 10 day
CWR22R [7] = test: Cytotoxicity against human 22Rv1 cells assessed as cell viability at 20 uM incubated for 72 hrs by resazurin dye based microplate reader assay; type: functional; conditions: read-out: Activity
DU-145 [8] = test: Cytotoxicity against human DU-145 cells assessed as cell viability at 20 uM incubated for 72 hrs by resazurin dye based microplate reader assay; type: functional; conditions: read-out: Activity
LAPC4 [9] = test: Antiproliferative activity against human LAPC4 cells assessed as decrease in […] at 2 to 10 uM incubated for 24 to 72 hrs by resazurin dye based assay; type: functional, cell-based; conditions: dose 2-10 µM, time 24-72 hrs
Androgen receptor = biological target: T2, Androgen receptor (Homo sapiens, UniProt P10275); test: Antagonist activity at AR transcription in human 22Rv1 cells incubated for 24 hrs in presence of R1881; type: cell-based
T2 sequence (P10275 whole entry): T1 sequence (whole entry)

[10] = biological target: T1, Androgen receptor (Homo sapiens); test: Binding affinity to His6 tagged recombinant human AR LBD expresssed in Escherichia coli BL21(DE3) cells by MST assay; conditions: filed as antagonist
[11] = biological target: T1, Androgen receptor (Homo sapiens); test: Antagonist activity at AR transcription in human LAPC4 cells assessed as reduction in PSA mRNA expression at 10 uM incubated for 24 hrs in presence of R1881 by qPCR analysis; type: cell-based; conditions: filed as antagonist
[12] = biological target: T1, Androgen receptor (Homo sapiens); test: Antagonist activity at AR in human 22Rv1 cells incubated for 24 hrs in presence of R1881 by Western blotting analysis; type: cell-based; conditions: filed as antagonist
[13] = biological target: T1, Androgen receptor (Homo sapiens); test: Antagonist activity at AR in human LNCaP cells assessed as reduction in PSA expression at 2 to 10 uM incubated for 72 hrs by Western blotting analysis; type: cell-based; parameters: scale not given: the % may be the effect or the level left; conditions: filed as antagonist, dose 2-10 µM
[14] = biological target: T1, Androgen receptor (Homo sapiens); test: Antagonist activity at AR transcription in human 22Rv1 cells assessed as reduction in PSA mRNA expression at 10 uM incubated for 24 hrs in presence of R1881 by qPCR analysis; type: cell-based; conditions: filed as antagonist
[15] = biological target: T1, Androgen receptor (Homo sapiens); test: Antagonist activity at AR in human LNCaP-abl cells assessed as reduction in PSA expression at 10 uM incubated for 24 hrs in presence of R1881 by Western blotting analysis; type: cell-based; conditions: filed as antagonist
LAPC4 [16] = test: Antiproliferative activity against human LAPC4 cells assessed as viable cells at 2 to 10 uM incubated for 24 to 48 hrs by resazurin dye based assay; type: functional; conditions: dose 2-10 µM, time 24-48 hrs
[17] = biological target: T1, Androgen receptor (Homo sapiens); test: Antagonist activity at AR in human LNCaP cells assessed as reduction in Nkx3.1 expression at 2 to 10 uM incubated for 72 hrs by Western blotting analysis; type: cell-based; parameters: scale not given: the % may be the effect or the level left; conditions: filed as antagonist, dose 2-10 µM
CWR22R [18] = test: Induction of cell cycle arrest in human 22Rv1 cells assessed as reduction S phase cells incubated for 48 hrs; type: functional, cell-based
[19] = biological target: T1, Androgen receptor (Homo sapiens); test: Antagonist activity at AR in human LNCaP cells incubated for 24 hrs in presence of R1881 by Western blotting analysis; type: cell-based; conditions: filed as antagonist
DU-145 [20] = test: Induction of cell cycle arrest in human DU-145 cells assessed as reduction S phase cells incubated for 48 hrs; type: functional, cell-based
LAPC4 [21] = test: Antiproliferative activity against human LAPC4 cells; type: functional; conditions: time 72 hrs
LAPC4 [22] = test: Reversal of AR degradation in human LAPC4 cells at 10 to 20 uM preincubated for 1 hr followed by bav-degalutamide addition and measured after 4 hrs; type: functional, cell-based; conditions: dose 10-20 µM, time 5.0 hrs
LAPC4 [23] = test: Induction of cell cycle arrest in human LAPC4 cells assessed as reduction S phase cells incubated for 48 hrs; type: functional, cell-based
LAPC4 [24] = test: Induction of apoptosis in human LAPC4 cells assessed as PARP-1 expression at 2 to 10 uM incubated for 48 to 72 hrs; type: functional, cell-based; conditions: dose 2-10 µM, time 48-72 hrs
[25] = biological target: T1, Androgen receptor (Homo sapiens); test: Antagonist activity at AR in human LNCaP-abl cells assessed as reduction in phosphorylation at S81 at 10 uM incubated for 24 hrs in presence of R1881 by Western blotting analysis; type: cell-based; conditions: filed as antagonist
[26] = biological target: T1, Androgen receptor (Homo sapiens); test: Antagonist activity at AR in human LAPC4 cells incubated for 24 hrs in presence of R1881 by Western blotting analysis; type: cell-based; conditions: filed as antagonist, dose 1.25-10 µM
LAPC4 [27] = test: Induction of apoptosis in human LAPC4 cells assessed as cleaved caspase-7 expression at 2 to 10 uM incubated for 48 to 72 hrs; type: functional, cell-based; conditions: dose 2-10 µM, time 48-72 hrs
LAPC4 [28] = test: Induction of apoptosis in human LAPC4 cells assessed as cleaved caspase-3 expression at 2 to 10 uM incubated for 48 to 72 hrs; type: functional, cell-based; conditions: dose 2-10 µM, time 48-72 hrs
[29] = biological target: T1, Androgen receptor (Homo sapiens); test: Antagonist activity at AR transcription in human LAPC4 cells assessed as reduction in AR mRNA expression at 10 uM incubated for 24 hrs in presence of R1881 by qPCR analysis; type: cell-based; conditions: filed as antagonist

| Compound | viability at 20 µM (LAPC4 [1]) [%] | inhibition (LAPC4 [2]) | Activity [3] [%] | Activity [4] | Activity [5] | inhibition at 10 µM (LAPC4 [6]) [%] | viability at 20 µM (CWR22R [7]) [%] | viability at 20 µM (DU-145 [8]) [%] | Activity [15] | Activity [25] | other results |
| --- | --- | --- | --- | --- | --- | --- | --- | --- | --- | --- | --- |
| Cn1nc2c(c1-c1cccs1)C[C@@]1(C)[C@@H](CC[C@@H]3[C@@H]1CC[C@]1(C)[C@@H](O)CC[C@@H]31)C2 | 46 | Active | 87 | Active | Active | 1 | 44 | 100 | – | – | – |
| Cc1c2c(nn1-c1ccc(F)cc1)C[C@@H]1CC[C@@H]3[C@H](CC[C@]4(C)[C@@H](O)CC[C@@H]34)[C@@]1(C)C2 | 38 | Active | – | Active | Active | 3 | 26 | ≥ 100 | Active | Active | Activity (LAPC4 [9]): Active; IC50 (Androgen receptor): 1.18 µM; Activity [10]: Active; Activity [11]: Active; Activity [12]: Dose-Dependent Effect; Activity [13]: 100%; Activity [14]: Active; Activity (LAPC4 [16]): >80%; Activity [17]: 100%; Activity (CWR22R [18]): Active; Activity [19]: Dose-Dependent Effect; Activity (DU-145 [20]): inactive; GI50 (LAPC4 [21]): 7.9 µM; Activity (LAPC4 [22]): Active; Activity (LAPC4 [23]): Active; Activity (LAPC4 [24]): Active; Activity [26]: Dose-Dependent Effect; Activity (LAPC4 [27]): Active; Activity (LAPC4 [28]): Active; Activity [29]: Active |
| Cn1nc2c(c1-c1ccco1)C[C@@]1(C)[C@@H](CC[C@@H]3[C@@H]1CC[C@]1(C)[C@@H](O)CC[C@@H]31)C2 | 50 | Active | 78 | Active | Active | 2 | 18 | 100 | – | – | – |
| Cc1c2c(nn1-c1ccc(C#N)cc1)C[C@@H]1CC[C@@H]3[C@H](CC[C@]4(C)C(=O)CC[C@@H]34)[C@@]1(C)C2 | 78 | Active | – | – | – | 29 | 87 | ≥ 100 | Active | Active | – |
